Measurements published in US20220227804A1, “COMBINATION OF A POLYHYDROXYLATED BILE ACID AND A FARNESOID X RECEPTOR AGONIST” (QING BILE THERAPEUTICS INC., priority 2019, published 2022).
Read-outs that look alike come from different tables or passages of the source.

Legend:
Mdr2^−/− mice [1] = assay: First study: dietary supplementation of Mdr2−/− mice (mouse model of human PSC and PFIC) for 17 weeks; conditions: mono-treatment, 0.03% OCA or 1% THBA (w/w) in diet, from 3 to 20 weeks of age, female mice
Mdr2^−/− mice [2] = conditions: mouse, in vivo

CC[C@H]1[C@@H](O)[C@@H]2[C@H](CC[C@]3(C)[C@@H]([C@H](C)CCC(=O)O)CC[C@@H]23)[C@@]2(C)CC[C@@H](O)C[C@@H]12 [OCA, Obeticholic acid, reference compound]
adverse effects (Mdr2^−/− mice [1]): no significant, obvious, adverse effects

C[C@H](CCC(=O)O)[C@H]1CC[C@H]2[C@@H]3[C@H](O)[C@H](O)[C@@H]4C[C@H](O)CC[C@]4(C)[C@H]3C[C@H](O)[C@]12C [THBA, 3α, 6α, 7α, 12α-tetrahydroxy-5β-cholan-24-oic acid]
adverse effects (Mdr2^−/− mice [2]): no significant, obvious, adverse effects | liver indicator profiles (bilirubin, ALT, ALP, total bile acids in plasma) (Mdr2^−/− mice [1]): significantly improved liver indicator profiles
